# Assay results published in ChEMBL document CHEMBL1123983, “Bis(4-hydroxyphenyl)[2-(phenoxysulfonyl)phenyl]methane: isolation and structure elucidation of a novel estrogen from commercial preparations of phenol red (phenolsulfonphthalein)” (J Med Chem, 1988).
# Molecular target: Estrogen receptor (Homo sapiens) (UniProt Q92731+P03372)
# Assay: Estrogen-related induction of progesterone receptor expression in MCF-7 cells at 10e-6 M
# Format: cell-based
# Conditions: MCF7
structure (smiles),measurement,value
O=S(=O)(Oc1ccccc1)c1ccccc1C(c1ccc(O)cc1)c1ccc(O)cc1,"PR level, % of control",1680%
